Holding throughout (format): in vivo
Test [1] deals with Alopecurus myosuroides (ALOMY). As to the kind of experiment: Example B pre-emergence herbicidal activity. The conditions noted are these: 312 h, rate 250 g/ha, evaluated after 13 days, read-out: Pre-Emergence Activity ALOMY (100=total damage to plant; 0=no damage to plant). In outline: (§1)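 Glasshouse pot test, 24/16 °C, 14 h light, 65% RH, watered twice daily. Spray timing: day 1 pre-em., day 8 post-em.; vehicle acetone/water 50:50 + 0.5% Tween 20. Readout 13 d, 0–100% damage.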

The test system of test [2] is Amaranthus retoflexus (AMARE). Description: Example B pre-emergence herbicidal activity. Particulars: Amaranthus retroflexus, 312 h, rate 250 g/ha, evaluated after 13 days, read-out: Pre-Emergence Activity AMARE (100=total damage to plant; 0=no damage to plant). In outline: as §1
Test [3] concerns Avena fatua (AVEFA). As to the kind of experiment: Example B pre-emergence herbicidal activity. Particulars: 312 h, rate 250 g/ha, evaluated after 13 days, read-out: Pre-Emergence Activity AVEFA (100=total damage to plant; 0=no damage to plant). In outline: as §1
In test [4] the test system is Echinochloa crus-galli (ECHCG). As to the kind of experiment: Example B pre-emergence herbicidal activity. Particulars: 312 h, rate 250 g/ha, evaluated after 13 days, read-out: Pre-Emergence Activity ECHCG (100=total damage to plant; 0=no damage to plant). In outline:
as §1

For test [5], the system named is Setaria faberi (SETFA). Description: Example B pre-emergence herbicidal activity. The conditions noted are these: 312 h, rate 250 g/ha, evaluated after 13 days, read-out: Pre-Emergence Activity SETFA (100=total damage to plant; 0=no damage to plant). In outline: as §1
The subject of test [6] is Alopecurus myosuroides (ALOMY). As to the kind of experiment: Example B post-emergence herbicidal activity. Particulars: 312 h, rate 250 g/ha, evaluated after 13 days, read-out: Post-emergence activity ALOMY (100=total damage to plant; 0=no damage to plant). A digest of the protocol: as §1
The test system of test [7] is Amaranthus retoflexus (AMARE). Description: Example B post-emergence herbicidal activity. The conditions noted are these: Amaranthus retroflexus, 312 h, rate 250 g/ha, evaluated after 13 days, read-out: Post-emergence activity AMARE (100=total damage to plant; 0=no damage to plant). A digest of the protocol:
as §1

The subject of test [8] is Avena fatua (AVEFA). As to the kind of experiment: Example B post-emergence herbicidal activity. The conditions noted are these: 312 h, rate 250 g/ha, evaluated after 13 days, read-out: Post-emergence activity AVEFA (100=total damage to plant; 0=no damage to plant). A digest of the protocol: as §1
In test [9] the test system is Echinochloa crus-galli (ECHCG). As to the kind of experiment: Example B post-emergence herbicidal activity. Particulars: 312 h, rate 250 g/ha, evaluated after 13 days, read-out: Post-emergence activity ECHCG (100=total damage to plant; 0=no damage to plant). A digest of the protocol: as §1
For test [10], the system named is Setaria faberi (SETFA). As to the kind of experiment: Example B post-emergence herbicidal activity. Particulars: 312 h, rate 250 g/ha, evaluated after 13 days, read-out: Post-emergence activity SETFA (100=total damage to plant; 0=no damage to plant). In outline:
as §1

SMILES strings stand for the structures.

On to `CC(=O)OC1=C(c2nc(-c3ccc(Cl)cc3)ncc2C)C(=O)[C@@H]2C[C@H]1C2(C)C` [Compound P19], for which the pest or weed control at 250 g/ha in [1] is 10%; in test [2] it was 0%; in the test with Avena fatua (AVEFA) [3] it was 0%; in test [4] it was 20%; with Setaria faberi (SETFA) [5] it was 90%; in test [6] it was 20%. Moreover, the pest or weed control at 250 g/ha was 0% in test [7], 0% with Avena fatua (AVEFA) [8], 90% in [9] and 90% in the test on Setaria faberi (SETFA) [10].

With `CCc1sc(-c2ccc(Cl)cc2Cl)nc1C1C(=O)[C@@H]2CC[C@@H](C2)C1=O` (stereo partly drawn) [Compound T46], the pest or weed control at 250 g/ha turned out to be 60% in test [1]; 0% in test [2]; 30% in the test on Avena fatua (AVEFA) [3]; 100% in test [4]; 90% in the test on Setaria faberi (SETFA) [5]; 100% in [6]. Besides, the pest or weed control at 250 g/ha in [7] was found to be 0%; in the test on Avena fatua (AVEFA) [8], 90%; in test [9] it was 100%; in the test with Setaria faberi (SETFA) [10], 100%.

Consider `CCc1sc(-c2ccc(Br)cn2)nc1C1C(=O)[C@@H]2CC[C@@H](C2)C1=O` (stereo partly drawn) [Compound T39], for which the pest or weed control at 250 g/ha in test [1] was found to be 90%; in test [2] it was 0%; in the test on Avena fatua (AVEFA) [3], 0%; in test [4], 100%; in the test with Setaria faberi (SETFA) [5] it was 90%; in test [6], 100%. Also, the pest or weed control at 250 g/ha in test [7] was 0%; with Avena fatua (AVEFA) [8], 100%; in test [9], 100%; in the test with Setaria faberi (SETFA) [10], 100%.

Turning to `COc1cc(F)c(-c2nc(C3C(=O)[C@@H]4CC[C@@H](C4)C3=O)c(C)s2)cc1F` (stereo partly drawn) [Compound T68], the pest or weed control at 250 g/ha in test [1] turned out to be 60%; in [2] it was 0%; in the test on Avena fatua (AVEFA) [3], 70%; in test [4], 0%; with Setaria faberi (SETFA) [5] it was 80%; in test [6], 70%. The pest or weed control at 250 g/ha in test [7] worked out at 0%; in the test on Avena fatua (AVEFA) [8] it was 90%; in test [9], 100%; with Setaria faberi (SETFA) [10], 100%.

In the case of `Cc1sc(-c2ccc(OC(F)(F)F)cc2)nc1C1C(=O)[C@@H]2CC[C@@H](C2)C1=O` (stereo partly drawn) [Compound T5, 3-[5-methyl-2-(4-trifluoromethoxyphenyl)thiazol-4-yl]bicyclo[3.2.1]octane-2,4-dione], the pest or weed control at 250 g/ha in test [1] came to 50%; in [2], 0%; in the test on Avena fatua (AVEFA) [3], 0%; in test [4], 80%; in the test with Setaria faberi (SETFA) [5] it was 90%; in [6], 70%. In addition, the pest or weed control at 250 g/ha in test [7] amounted to 0%; with Avena fatua (AVEFA) [8], 0%; in test [9], 100%; in the test with Setaria faberi (SETFA) [10], 100%.

For the compound `CCOc1ccc(-c2nc(C3C(=O)[C@@H]4CC[C@@H](C4)C3=O)c(C)s2)cc1F` (stereo partly drawn) [Compound T77], the pest or weed control at 250 g/ha in [1] is 0%; in test [2] it was 50%; in the test on Avena fatua (AVEFA) [3], 0%; in test [4], 0%; with Setaria faberi (SETFA) [5] it was 0%; in [6], 0%. The pest or weed control at 250 g/ha came out at 0% in test [7], 0% with Avena fatua (AVEFA) [8], 60% in test [9] and 70% with Setaria faberi (SETFA) [10].

On to `COc1ccc(-c2nc(C3C(=O)[C@@H]4CC[C@@H](C4)C3=O)c(C)s2)cc1` (stereo partly drawn) [Compound T58], for which the pest or weed control at 250 g/ha in test [1] turned out to be 60%; in test [2] it was 0%; in the test with Avena fatua (AVEFA) [3] it was 60%; in test [4], 100%; in the test with Setaria faberi (SETFA) [5], 60%; in test [6] it was 90%. In addition, the pest or weed control at 250 g/ha worked out at 0% in [7], 80% with Avena fatua (AVEFA) [8], 100% in test [9] and 100% in the test on Setaria faberi (SETFA) [10].

As for `Cc1sc(-c2ccc(OC(F)F)cc2)nc1C1C(=O)[C@@H]2CC[C@@H](C2)C1=O` (stereo partly drawn) [Compound T42], the pest or weed control at 250 g/ha in test [1] worked out at 100%; in test [2], 0%; in the test with Avena fatua (AVEFA) [3], 0%; in [4], 100%; with Setaria faberi (SETFA) [5], 100%; in test [6] it was 100%. The pest or weed control at 250 g/ha was determined as 0% in [7], 70% with Avena fatua (AVEFA) [8], 100% in test [9] and 100% with Setaria faberi (SETFA) [10].

Consider `Cc1sc(-c2ccc(Cl)c(C#N)c2)nc1C1C(=O)C2CCC(C2)C1=O` (stereo not drawn) [Compound T74], for which the pest or weed control at 250 g/ha in test [1] turned out to be 30%; in test [2], 100%; in the test on Avena fatua (AVEFA) [3], 0%; in [4] it was 20%; in the test with Setaria faberi (SETFA) [5], 40%; in test [6], 50%. The pest or weed control at 250 g/ha in [7] stood at 0%; in the test on Avena fatua (AVEFA) [8], 0%; in test [9] it was 70%; with Setaria faberi (SETFA) [10], 90%.

Consider `Cc1sc(-c2ccc(C(C)C)cc2)nc1C1C(=O)[C@@H]2CC[C@@H](C2)C1=O` (stereo partly drawn) [Compound T87], for which the pest or weed control at 250 g/ha in [1] turned out to be 20%; in test [2] it was 20%; in the test on Avena fatua (AVEFA) [3], 50%; in test [4] it was 60%; in the test with Setaria faberi (SETFA) [5] it was 60%; in [6] it was 50%. Further, the pest or weed control at 250 g/ha in [7] amounted to 0%; in the test on Avena fatua (AVEFA) [8], 60%; in test [9], 90%; in the test on Setaria faberi (SETFA) [10] it was 90%.

`CCc1sc(-c2c(F)cc(Cl)cc2F)nc1C1C(=O)[C@@H]2CC[C@@H](C2)C1=O` (stereo partly drawn) [Compound T29]: the pest or weed control at 250 g/ha in test [1] was determined as 90%; in [2] it was 20%; in the test with Avena fatua (AVEFA) [3], 90%; in test [4], 100%; with Setaria faberi (SETFA) [5] it was 100%; in [6], 100%. Further, the pest or weed control at 250 g/ha in test [7] was found to be 0%; in the test on Avena fatua (AVEFA) [8], 100%; in test [9] it was 100%; in the test on Setaria faberi (SETFA) [10], 100%.

For `CCOC(=O)/C=C/OC1=C(c2nc(-c3ccc(Cl)cc3)sc2CC)C(=O)[C@H]2CC[C@@H]1C2` [Compound P5], the pest or weed control at 250 g/ha in test [1] came out at 100%; in test [2] it was 0%; in the test on Avena fatua (AVEFA) [3], 30%; in test [4], 40%; in the test on Setaria faberi (SETFA) [5] it was 100%; in test [6] it was 100%. Further, the pest or weed control at 250 g/ha is 0% in [7], 90% in the test on Avena fatua (AVEFA) [8], 100% in [9] and 100% with Setaria faberi (SETFA) [10].

The values above are taken from patent US8598365B2, “Herbicides” (Syngenta Limited, priority 2007, dated 2013).
